Laboratory results reported in the kinase profiling compilation of Christmann-Franck et al. (2016).

Key:
Test in all cases: KINOMEscan competition binding
Conditions in all cases: compound 0.5 µM
SBK1 (human) = SBK1 (human) (UniProt Q52WX2)
[1] = test system: PIK3CA (human), P42336 [E545K]
PRKCD (human) = PRKCD (human) (UniProt Q05655)
HIPK1 (human) = HIPK1 (human) (UniProt Q86Z02)
CHEK1 (human) = CHEK1 (human) (UniProt O14757)
CAMK1G (human) = CAMK1G (human) (UniProt Q96NX5)
YSK4 (human) = YSK4 (human) (UniProt Q56UN5)
GAK (human) = GAK (human) (UniProt O14976)
MAP4K3 (human) = MAP4K3 (human) (UniProt Q8IVH8)
MAST1 (human) = MAST1 (human) (UniProt Q9Y2H9)
GSK3A (human) = GSK3A (human) (UniProt P49840)
CDC2L2 (human) = CDC2L2 (human) (UniProt Q9UQ88)
CAMK2G (human) = CAMK2G (human) (UniProt Q13555)
CDKL3 (human) = CDKL3 (human) (UniProt Q8IVW4)
CDC42BPB (human) = CDC42BPB (human) (UniProt Q9Y5S2)
HCK (human) = HCK (human) (UniProt P08631)
STK32C (human) = STK32C (human) (UniProt Q86UX6)
ACVR2A (human) = ACVR2A (human) (UniProt P27037)
MTOR (human) = MTOR (human) (UniProt P42345)
MATK (human) = MATK (human) (UniProt P42679)
MAP4K2 (human) = MAP4K2 (human) (UniProt Q12851)
SRMS (human) = SRMS (human) (UniProt Q9H3Y6)
EPHA4 (human) = EPHA4 (human) (UniProt P54764)
SRPK2 (human) = SRPK2 (human) (UniProt P78362)
LYN (human) = LYN (human) (UniProt P07948)
LATS1 (human) = LATS1 (human) (UniProt O95835)
STK25 (human) = STK25 (human) (UniProt O00506)
CDK17 (human) = CDK17 (human) (UniProt Q00537)
[2] = test system: ABL1 (human), P00519 [Y253F]
FGFR4 (human) = FGFR4 (human) (UniProt P22455)
FYN (human) = FYN (human) (UniProt P06241)
PAK6 (human) = PAK6 (human) (UniProt Q9NQU5)
INSRR (human) = INSRR (human) (UniProt P14616)
MAP2K4 (human) = MAP2K4 (human) (UniProt P45985)
NEK5 (human) = NEK5 (human) (UniProt Q6P3R8)
PIK3C2B (human) = PIK3C2B (human) (UniProt O00750)
STK38L (human) = STK38L (human) (UniProt Q9Y2H1)
FGFR2 (human) = FGFR2 (human) (UniProt P21802)
DYRK1A (human) = DYRK1A (human) (UniProt Q13627)
PRKCE (human) = PRKCE (human) (UniProt Q02156)
[3] = test system: PIK3CA (human), P42336 [I800L]
NEK2 (human) = NEK2 (human) (UniProt P51955)

STK32C (human), sequence (Q86UX6 whole entry, looked up): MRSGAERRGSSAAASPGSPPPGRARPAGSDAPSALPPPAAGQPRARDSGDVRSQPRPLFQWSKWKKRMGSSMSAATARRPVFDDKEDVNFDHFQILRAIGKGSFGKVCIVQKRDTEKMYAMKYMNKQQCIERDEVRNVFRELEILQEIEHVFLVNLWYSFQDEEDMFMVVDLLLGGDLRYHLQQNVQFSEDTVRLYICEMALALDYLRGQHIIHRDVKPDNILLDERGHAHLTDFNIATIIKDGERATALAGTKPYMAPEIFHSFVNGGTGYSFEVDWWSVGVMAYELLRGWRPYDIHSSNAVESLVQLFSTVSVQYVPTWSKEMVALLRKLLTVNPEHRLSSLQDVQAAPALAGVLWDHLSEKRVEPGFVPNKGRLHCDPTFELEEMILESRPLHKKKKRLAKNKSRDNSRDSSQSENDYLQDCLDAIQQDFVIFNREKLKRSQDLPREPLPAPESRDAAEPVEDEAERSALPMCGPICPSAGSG
LYN (human), sequence (P07948 whole entry, looked up): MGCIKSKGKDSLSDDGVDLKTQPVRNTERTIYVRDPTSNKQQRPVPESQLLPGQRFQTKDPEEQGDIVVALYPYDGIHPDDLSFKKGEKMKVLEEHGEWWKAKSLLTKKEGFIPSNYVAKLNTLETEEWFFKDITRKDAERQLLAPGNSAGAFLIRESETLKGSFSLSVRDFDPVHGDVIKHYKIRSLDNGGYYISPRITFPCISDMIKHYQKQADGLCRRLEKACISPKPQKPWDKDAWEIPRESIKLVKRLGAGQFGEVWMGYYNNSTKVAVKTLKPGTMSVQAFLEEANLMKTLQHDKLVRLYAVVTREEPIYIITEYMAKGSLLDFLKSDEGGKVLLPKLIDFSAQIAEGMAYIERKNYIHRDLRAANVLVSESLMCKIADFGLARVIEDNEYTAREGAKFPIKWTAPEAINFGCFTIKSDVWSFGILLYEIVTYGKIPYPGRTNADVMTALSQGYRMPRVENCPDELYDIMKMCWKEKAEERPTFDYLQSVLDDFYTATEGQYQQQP
SRPK2 (human), sequence (P78362 whole entry, looked up): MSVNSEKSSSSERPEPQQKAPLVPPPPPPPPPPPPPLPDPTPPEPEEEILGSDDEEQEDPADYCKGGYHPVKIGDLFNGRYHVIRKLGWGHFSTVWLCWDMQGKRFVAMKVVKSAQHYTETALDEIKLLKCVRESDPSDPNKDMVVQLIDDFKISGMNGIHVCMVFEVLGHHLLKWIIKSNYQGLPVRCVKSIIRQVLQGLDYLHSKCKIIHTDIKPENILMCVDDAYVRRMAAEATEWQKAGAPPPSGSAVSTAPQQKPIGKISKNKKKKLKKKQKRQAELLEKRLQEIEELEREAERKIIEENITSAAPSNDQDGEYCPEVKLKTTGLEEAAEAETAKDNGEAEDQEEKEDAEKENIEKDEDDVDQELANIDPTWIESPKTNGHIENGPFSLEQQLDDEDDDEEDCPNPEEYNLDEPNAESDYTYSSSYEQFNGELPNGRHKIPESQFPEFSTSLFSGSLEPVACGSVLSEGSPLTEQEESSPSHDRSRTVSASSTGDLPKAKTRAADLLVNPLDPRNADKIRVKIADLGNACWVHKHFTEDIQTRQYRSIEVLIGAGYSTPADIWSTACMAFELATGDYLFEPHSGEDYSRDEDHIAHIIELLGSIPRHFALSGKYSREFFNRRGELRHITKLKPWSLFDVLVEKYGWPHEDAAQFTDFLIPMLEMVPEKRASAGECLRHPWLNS
STK38L (human), sequence (Q9Y2H1 whole entry, looked up): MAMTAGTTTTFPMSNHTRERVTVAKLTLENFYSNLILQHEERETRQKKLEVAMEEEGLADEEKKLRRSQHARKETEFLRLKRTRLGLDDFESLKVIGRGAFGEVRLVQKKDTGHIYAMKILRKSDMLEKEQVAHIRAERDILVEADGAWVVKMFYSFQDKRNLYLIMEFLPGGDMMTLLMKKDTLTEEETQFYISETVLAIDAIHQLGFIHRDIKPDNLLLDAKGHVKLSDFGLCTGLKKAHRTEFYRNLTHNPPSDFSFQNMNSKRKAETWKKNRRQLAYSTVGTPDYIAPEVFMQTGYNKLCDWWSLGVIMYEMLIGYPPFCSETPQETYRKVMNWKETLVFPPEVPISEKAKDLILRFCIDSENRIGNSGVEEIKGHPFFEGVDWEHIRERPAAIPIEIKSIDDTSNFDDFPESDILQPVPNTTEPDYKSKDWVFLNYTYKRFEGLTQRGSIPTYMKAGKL
YSK4 (human), sequence (Q56UN5 whole entry, looked up): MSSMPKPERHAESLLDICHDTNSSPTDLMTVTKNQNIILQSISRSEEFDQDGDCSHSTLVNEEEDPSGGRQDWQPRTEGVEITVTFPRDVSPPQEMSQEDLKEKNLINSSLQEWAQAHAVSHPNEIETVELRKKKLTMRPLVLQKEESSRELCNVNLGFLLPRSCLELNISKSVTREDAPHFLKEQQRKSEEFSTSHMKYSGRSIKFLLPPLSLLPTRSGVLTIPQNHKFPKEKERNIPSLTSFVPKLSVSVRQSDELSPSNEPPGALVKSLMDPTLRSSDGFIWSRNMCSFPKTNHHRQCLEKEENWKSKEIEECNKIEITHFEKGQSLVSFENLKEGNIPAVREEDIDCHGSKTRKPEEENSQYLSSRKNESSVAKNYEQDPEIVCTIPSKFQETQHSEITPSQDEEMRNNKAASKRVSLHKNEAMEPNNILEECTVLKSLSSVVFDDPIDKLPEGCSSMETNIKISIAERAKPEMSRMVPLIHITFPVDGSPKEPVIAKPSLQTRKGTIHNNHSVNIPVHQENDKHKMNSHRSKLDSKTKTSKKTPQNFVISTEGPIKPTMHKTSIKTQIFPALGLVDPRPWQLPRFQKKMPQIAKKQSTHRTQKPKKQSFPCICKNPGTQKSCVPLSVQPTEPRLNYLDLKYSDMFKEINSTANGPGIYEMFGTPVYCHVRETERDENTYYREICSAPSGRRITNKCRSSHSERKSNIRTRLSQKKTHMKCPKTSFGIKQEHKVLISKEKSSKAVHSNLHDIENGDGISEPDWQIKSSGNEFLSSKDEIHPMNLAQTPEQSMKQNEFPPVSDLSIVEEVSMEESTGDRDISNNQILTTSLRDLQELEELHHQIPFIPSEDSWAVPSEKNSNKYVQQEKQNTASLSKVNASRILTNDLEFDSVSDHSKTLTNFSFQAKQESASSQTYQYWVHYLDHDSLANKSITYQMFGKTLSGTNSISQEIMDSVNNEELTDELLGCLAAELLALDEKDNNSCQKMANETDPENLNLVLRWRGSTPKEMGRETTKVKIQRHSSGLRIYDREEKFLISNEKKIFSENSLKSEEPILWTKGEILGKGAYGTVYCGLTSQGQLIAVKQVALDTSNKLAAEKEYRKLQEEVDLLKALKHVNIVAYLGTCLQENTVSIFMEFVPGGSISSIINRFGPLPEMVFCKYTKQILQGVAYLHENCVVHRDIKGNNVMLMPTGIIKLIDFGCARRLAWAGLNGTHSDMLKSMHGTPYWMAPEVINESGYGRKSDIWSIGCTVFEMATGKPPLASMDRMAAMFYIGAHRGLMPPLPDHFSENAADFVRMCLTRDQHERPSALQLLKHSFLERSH
PAK6 (human), sequence (Q9NQU5 whole entry, looked up): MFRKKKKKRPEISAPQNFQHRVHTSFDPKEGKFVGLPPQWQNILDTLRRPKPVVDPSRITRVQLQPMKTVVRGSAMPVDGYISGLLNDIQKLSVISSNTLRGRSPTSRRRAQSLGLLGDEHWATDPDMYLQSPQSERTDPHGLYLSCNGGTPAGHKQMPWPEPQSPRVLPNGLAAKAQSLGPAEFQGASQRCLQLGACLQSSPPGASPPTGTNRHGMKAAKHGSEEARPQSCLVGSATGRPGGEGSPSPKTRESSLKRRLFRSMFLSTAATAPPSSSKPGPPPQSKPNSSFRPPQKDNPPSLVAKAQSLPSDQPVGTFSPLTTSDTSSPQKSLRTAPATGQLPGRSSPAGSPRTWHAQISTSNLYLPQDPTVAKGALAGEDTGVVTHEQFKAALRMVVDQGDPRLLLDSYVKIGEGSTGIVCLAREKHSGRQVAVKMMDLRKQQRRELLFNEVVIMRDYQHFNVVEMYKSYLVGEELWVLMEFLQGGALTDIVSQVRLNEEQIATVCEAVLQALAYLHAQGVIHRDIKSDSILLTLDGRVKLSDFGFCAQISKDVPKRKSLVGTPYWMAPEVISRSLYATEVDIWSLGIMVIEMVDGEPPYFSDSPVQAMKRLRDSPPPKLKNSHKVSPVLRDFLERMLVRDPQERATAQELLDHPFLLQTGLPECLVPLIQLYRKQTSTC
MAP2K4 (human), sequence (P45985 whole entry, looked up): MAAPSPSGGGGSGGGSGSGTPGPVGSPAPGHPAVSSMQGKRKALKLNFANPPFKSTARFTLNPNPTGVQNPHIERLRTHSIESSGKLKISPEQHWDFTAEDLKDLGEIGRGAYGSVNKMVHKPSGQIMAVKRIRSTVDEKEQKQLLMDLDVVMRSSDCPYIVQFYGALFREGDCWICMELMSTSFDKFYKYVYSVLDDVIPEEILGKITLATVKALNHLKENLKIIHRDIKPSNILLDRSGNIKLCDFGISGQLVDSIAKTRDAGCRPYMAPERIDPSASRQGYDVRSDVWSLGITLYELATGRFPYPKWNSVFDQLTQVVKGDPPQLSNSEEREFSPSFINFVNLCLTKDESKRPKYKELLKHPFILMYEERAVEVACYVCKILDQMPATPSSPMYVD
STK25 (human), sequence (O00506 whole entry, looked up): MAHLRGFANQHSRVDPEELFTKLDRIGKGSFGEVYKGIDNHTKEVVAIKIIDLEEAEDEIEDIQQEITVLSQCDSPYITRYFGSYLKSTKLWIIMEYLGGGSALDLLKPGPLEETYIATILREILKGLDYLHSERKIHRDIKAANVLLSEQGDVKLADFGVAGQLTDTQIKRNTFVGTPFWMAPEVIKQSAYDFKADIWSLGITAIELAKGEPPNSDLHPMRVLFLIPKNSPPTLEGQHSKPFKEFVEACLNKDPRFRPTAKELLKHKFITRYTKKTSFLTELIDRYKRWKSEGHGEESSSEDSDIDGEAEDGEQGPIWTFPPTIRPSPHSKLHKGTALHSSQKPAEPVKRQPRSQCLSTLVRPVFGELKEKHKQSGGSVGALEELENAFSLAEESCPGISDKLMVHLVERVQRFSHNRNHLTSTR

## Cn1c2ccccc2c2c3c(c4c5ccccc5n(CCC#N)c4c21)CNC3=O
SBK1 (human)
  kinase still bound, per cent of control: 82%
[1]
  kinase still bound, per cent of control: 100%
PRKCD (human)
  kinase still bound, per cent of control: 43%
HIPK1 (human)
  kinase still bound, per cent of control: 32%
CHEK1 (human)
  kinase still bound, per cent of control: 0.2%
CAMK1G (human)
  kinase still bound, per cent of control: 66%
YSK4 (human)
  kinase still bound, per cent of control: 0%
GAK (human)
  kinase still bound, per cent of control: 2%
MAP4K3 (human)
  kinase still bound, per cent of control: 6%
MAST1 (human)
  kinase still bound, per cent of control: 100%
GSK3A (human)
  kinase still bound, per cent of control: 100%
CDC2L2 (human)
  kinase still bound, per cent of control: 84%
CAMK2G (human)
  kinase still bound, per cent of control: 41%
CDKL3 (human)
  kinase still bound, per cent of control: 91%
CDC42BPB (human)
  kinase still bound, per cent of control: 100%
HCK (human)
  kinase still bound, per cent of control: 100%
STK32C (human)
  kinase still bound, per cent of control: 100%
ACVR2A (human)
  kinase still bound, per cent of control: 100%
MTOR (human)
  kinase still bound, per cent of control: 52%
MATK (human)
  kinase still bound, per cent of control: 67%
MAP4K2 (human)
  kinase still bound, per cent of control: 1.1%
SRMS (human)
  kinase still bound, per cent of control: 100%
EPHA4 (human)
  kinase still bound, per cent of control: 97%
SRPK2 (human)
  kinase still bound, per cent of control: 9.2%
LYN (human)
  kinase still bound, per cent of control: 100%
LATS1 (human)
  kinase still bound, per cent of control: 31%
STK25 (human)
  kinase still bound, per cent of control: 100%
CDK17 (human)
  kinase still bound, per cent of control: 100%
[2]
  kinase still bound, per cent of control: 100%
FGFR4 (human)
  kinase still bound, per cent of control: 100%
FYN (human)
  kinase still bound, per cent of control: 92%
PAK6 (human)
  kinase still bound, per cent of control: 1.4%
INSRR (human)
  kinase still bound, per cent of control: 100%
MAP2K4 (human)
  kinase still bound, per cent of control: 1.2%
NEK5 (human)
  kinase still bound, per cent of control: 100%
PIK3C2B (human)
  kinase still bound, per cent of control: 100%
STK38L (human)
  kinase still bound, per cent of control: 66%
FGFR2 (human)
  kinase still bound, per cent of control: 95%
DYRK1A (human)
  kinase still bound, per cent of control: 6.4%
PRKCE (human)
  kinase still bound, per cent of control: 66%
[3]
  kinase still bound, per cent of control: 19%
NEK2 (human)
  kinase still bound, per cent of control: 100%
